In patent US20120135923A1, “Use of Melanocortins to Treat Dyslipidemia” (IPSEN PHARMA, S.A.S., priority 2009, published 2012):
Read-outs that look alike come from different tables or passages of the source.

Experiments:
Experiment in all cases: cyclic AMP bioassay (ECL) in CHO-K1 cells
Assay type in all cases: cell-based
hMC3-R = biological target: T1, hMC3-R (Homo sapiens, UniProt P41968)
T1 construct: expressed in transfected cells; host or cells: CHO-K1

hMC4-R = biological target: T2, hMC4-R (Homo sapiens, UniProt P32245)
T2 construct: expressed in transfected cells; host or cells: CHO-K1
T2 sequence (P32245 whole entry): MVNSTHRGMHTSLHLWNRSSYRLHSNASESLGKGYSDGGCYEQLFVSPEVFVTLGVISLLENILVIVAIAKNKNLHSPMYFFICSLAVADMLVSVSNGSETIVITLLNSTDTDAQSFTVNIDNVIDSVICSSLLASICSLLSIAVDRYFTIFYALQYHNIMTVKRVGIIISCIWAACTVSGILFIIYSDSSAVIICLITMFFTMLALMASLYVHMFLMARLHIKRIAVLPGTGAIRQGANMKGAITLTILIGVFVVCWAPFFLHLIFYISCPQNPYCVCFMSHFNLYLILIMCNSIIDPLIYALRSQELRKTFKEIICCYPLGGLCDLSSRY

hMC5-R = biological target: T3, hMC5-R (Homo sapiens, UniProt P33032)
T3 construct: expressed in transfected cells; host or cells: CHO-K1
T3 sequence (P33032 whole entry): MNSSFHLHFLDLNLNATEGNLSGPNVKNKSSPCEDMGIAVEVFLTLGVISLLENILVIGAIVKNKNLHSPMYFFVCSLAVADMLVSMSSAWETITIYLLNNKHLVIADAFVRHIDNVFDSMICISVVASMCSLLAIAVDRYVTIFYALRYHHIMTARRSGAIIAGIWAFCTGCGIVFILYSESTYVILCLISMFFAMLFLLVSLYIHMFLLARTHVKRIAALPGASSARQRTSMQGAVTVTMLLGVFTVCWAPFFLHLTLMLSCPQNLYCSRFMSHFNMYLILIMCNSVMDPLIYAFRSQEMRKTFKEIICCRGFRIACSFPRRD

hMC1-R = biological target: T4, hMC1-R (Homo sapiens, UniProt Q01726)
T4 construct: expressed in transfected cells; host or cells: CHO-K1
T4 sequence (Q01726 whole entry): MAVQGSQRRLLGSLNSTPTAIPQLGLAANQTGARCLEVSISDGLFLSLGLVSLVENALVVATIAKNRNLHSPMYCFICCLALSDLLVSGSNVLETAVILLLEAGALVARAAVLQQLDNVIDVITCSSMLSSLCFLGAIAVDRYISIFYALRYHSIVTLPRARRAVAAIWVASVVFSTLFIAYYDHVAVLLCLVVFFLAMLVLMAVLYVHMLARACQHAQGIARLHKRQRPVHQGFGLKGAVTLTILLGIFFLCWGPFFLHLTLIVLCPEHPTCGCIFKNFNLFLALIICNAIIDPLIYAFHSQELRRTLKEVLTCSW

T1 sequence (P41968 whole entry): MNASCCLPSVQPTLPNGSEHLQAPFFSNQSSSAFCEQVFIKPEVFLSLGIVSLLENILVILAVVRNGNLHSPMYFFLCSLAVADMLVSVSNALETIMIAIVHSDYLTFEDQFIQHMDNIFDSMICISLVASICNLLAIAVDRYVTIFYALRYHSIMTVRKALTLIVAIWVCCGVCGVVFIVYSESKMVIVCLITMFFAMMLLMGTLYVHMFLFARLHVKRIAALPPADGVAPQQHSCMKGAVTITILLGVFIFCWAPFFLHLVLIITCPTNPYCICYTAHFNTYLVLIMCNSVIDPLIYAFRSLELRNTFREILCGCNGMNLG

Structure (SMILES)	Kb (hMC3-R)	Kb (hMC4-R)	EC50 (hMC5-R)	EC50 (hMC1-R)	other results
CC(=O)N[C@H]1CSSC[C@@H](C(=O)N2CCC[C@H]2C(=O)N2CCC[C@H]2C(=O)N[C@@H](CCCCN)C(=O)N[C@@H](CC(=O)O)C(=O)NCCC(=O)NCC(=O)N[C@@H](CCCNC(=N)N)C(=O)N[C@@H](CCCNC(=N)N)C(=O)N[C@@H](CCCCN)C(=O)N[C@@H](CCCNC(=N)N)C(=O)N[C@@H](CCCNC(=N)N)C(=O)N[C@@H](CCC(N)=O)C(=O)N[C@@H](CCCNC(=N)N)C(=O)N[C@@H](CCCNC(=N)N)C(=O)N[C@@H](CCCNC(=N)N)C(N)=O)NC(=O)[C@H](C)NC(=O)[C@H](Cc2csc3ccccc23)NC(=O)[C@H](CCCNC(=N)N)NC(=O)[C@@H](Cc2ccc3ccccc3c2)NC(=O)[C@H](Cc2c[nH]cn2)NC(=O)[C@H](CCC(=O)O)NC1=O	93.6 nM	4.42 nM	89.5 nM	33.8 nM	–
N=C(N)NCCC[C@@H]1NC(=O)[C@@H](Cc2ccccc2)NC(=O)[C@H](Cc2cnc[nH]2)NC(=O)[C@H](CCC(=O)O)NC(=O)[C@@H](NC(=O)[C@H](CCCNC(=N)N)N2C(=O)CNC2=O)CSSC[C@@H](C(N)=O)NC(=O)[C@H](Cc2c[nH]c3ccccc23)NC1=O [Hydantoin(C(O)-(Gly-Arg))-c(Cys-Glu-His-D-Phe-Arg-Trp-Cys)-NH2]	–	–	–	–	EC50 (hMC3-R; Table 11, read-out: EC50 hMC3): 3.63 nM; EC50 (hMC4-R; Table 11, read-out: EC50 hMC4): 0.0687 nM; EC50 (hMC5-R; Table 11, read-out: EC50 hMC5): 335 nM; EC50 (hMC1-R; Table 11, read-out: EC50 hMC1): 9.97 nM
CC(=O)N[C@@H](CCCNC(=N)N)C(=O)N[C@H]1CSSC(C)(C)[C@@H](C(N)=O)NC(=O)[C@H](Cc2c[nH]c3ccccc23)NC(=O)[C@H](CCCNC(=N)N)NC(=O)[C@@H](Cc2ccccc2)NC(=O)[C@H](Cc2c[nH]cn2)NC(=O)[C@@H](C)NC1=O [Ac-Arg-c(Cys-D-Ala-His-D-Phe-Arg-Trp-Pen)-NH2]	–	–	10000 nM	48.3 nM	EC50 (hMC3-R): 13.3 nM; EC50 (hMC4-R): 0.79 nM
CC(=O)N[C@H]1CSSC[C@@H](C(=O)N2CCC[C@H]2C(=O)N2CCC[C@H]2C(=O)N[C@@H](CCCCN)C(=O)N[C@@H](CC(=O)O)C(=O)NCCC(=O)N[C@@H](Cc2ccc(O)cc2)C(=O)NC(C)(C)C(=O)N[C@@H](CCCNC(=N)N)C(=O)N[C@@H](CCCCN)C(=O)N[C@@H](CCCCN)C(=O)N[C@@H](CCCNC(=N)N)C(=O)N[C@@H](CCCNC(=N)N)C(=O)N[C@@H](CCC(N)=O)C(=O)N[C@@H](CCCNC(=N)N)C(=O)N[C@@H](CCCNC(=N)N)C(=O)N[C@@H](CCCNC(=N)N)C(N)=O)NC(=O)[C@H](C)NC(=O)[C@H](Cc2csc3ccccc23)NC(=O)[C@H](CCCNC(=N)N)NC(=O)[C@@H](Cc2ccc3ccccc3c2)NC(=O)[C@H](Cc2c[nH]cn2)NC(=O)[C@H](CCC(=O)O)NC1=O	–	–	–	–	Kb (hMC3-R; antagonist potency by Schild analysis, cAMP, CHO-K1 cells expressing hMC3-R, read-out: Kb hMC3-R): 439 nM; Kb (hMC4-R; antagonist potency by Schild analysis, cAMP, CHO-K1 cells expressing hMC4-R, read-out: Kb hMC4-R): 46.5 nM; EC50 (hMC5-R; cAMP, CHO-K1 cells expressing hMC5-R, read-out: EC50 hMC5-R): 582 nM; EC50 (hMC1-R; cAMP, CHO-K1 cells expressing hMC1-R, read-out: EC50 hMC1-R): 67.1 nM
CC(=O)N[C@H]1CSSC[C@@H](C(=O)N2CCC[C@H]2C(=O)N2CCC[C@H]2C(=O)N[C@@H](CCCCN)C(=O)N[C@@H](CC(=O)O)C(=O)NCCC(=O)N[C@@H](CCCNC(=N)N)C(=O)N[C@@H](CCCNC(=N)N)C(=O)N[C@@H](CCCNC(=N)N)C(=O)N[C@@H](CCCNC(=N)N)C(=O)N[C@@H](CCCNC(=N)N)C(=O)N[C@@H](CCC(N)=O)C(=O)N[C@@H](CCCNC(=N)N)C(=O)N[C@@H](CCCNC(=N)N)C(=O)N[C@@H](CCCNC(=N)N)C(N)=O)NC(=O)[C@H](C)NC(=O)[C@H](Cc2csc3ccccc23)NC(=O)[C@H](CCCNC(=N)N)NC(=O)[C@@H](Cc2ccc3ccccc3c2)NC(=O)[C@H](Cc2c[nH]cn2)NC(=O)[C@H](CCC(=O)O)NC1=O	170 nM	6.14 nM	328 nM	52 nM	–
